Data on one compound can be found in PMC10455244, “Alpha-Mangostin: A Potent Inhibitor of TRPV3 and Pro-Inflammatory Cytokine Secretion in Keratinocytes” (International Journal of Molecular Sciences, 2023).

The target in series [1] is T1, TRPV3 (Homo sapiens, UniProt Q8NET8).
T1 sequence (Q8NET8 1-790): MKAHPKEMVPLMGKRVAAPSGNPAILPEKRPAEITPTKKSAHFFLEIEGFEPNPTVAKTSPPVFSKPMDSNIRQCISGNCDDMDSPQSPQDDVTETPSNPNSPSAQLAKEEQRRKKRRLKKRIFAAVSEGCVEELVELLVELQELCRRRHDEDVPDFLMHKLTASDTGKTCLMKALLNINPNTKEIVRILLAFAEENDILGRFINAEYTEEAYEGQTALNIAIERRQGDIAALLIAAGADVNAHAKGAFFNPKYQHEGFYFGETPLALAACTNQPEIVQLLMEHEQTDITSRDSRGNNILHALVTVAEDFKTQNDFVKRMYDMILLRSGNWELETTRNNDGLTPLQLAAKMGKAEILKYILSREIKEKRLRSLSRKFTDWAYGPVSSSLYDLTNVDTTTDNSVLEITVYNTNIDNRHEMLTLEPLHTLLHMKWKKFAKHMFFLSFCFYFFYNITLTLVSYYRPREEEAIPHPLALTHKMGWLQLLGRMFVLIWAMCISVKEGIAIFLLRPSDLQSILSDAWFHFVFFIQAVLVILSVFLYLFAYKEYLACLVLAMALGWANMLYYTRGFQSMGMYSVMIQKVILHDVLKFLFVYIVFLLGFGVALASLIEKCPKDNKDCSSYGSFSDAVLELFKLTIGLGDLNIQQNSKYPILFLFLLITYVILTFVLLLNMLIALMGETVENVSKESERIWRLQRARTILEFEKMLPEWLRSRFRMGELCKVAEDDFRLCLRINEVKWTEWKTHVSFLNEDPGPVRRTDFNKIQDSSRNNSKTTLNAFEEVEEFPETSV
As to the kind of experiment: Whole-cell patch-clamp, 2-APB-evoked TRPV3 current in normal human epidermal keratinocytes (NHEK). It counts as cell-based. Further details: host or cells: NHEK. The conditions noted are these: 100 µM 2-APB, −100 mV, read-out: TRPV3 current inhibited to (normalized to maximum 2-APB response). On the technique in general: Patch clamp records ionic current or voltage across a cell membrane.

Series [2] concerns IL-8. As to the kind of experiment: ELISA, carvacrol-induced IL-8 release in NHEK. The conditions noted are these: 1 µM with 300 µM carvacrol, 24 h. The class given is cell-based, human. The text has this:
(§1) Constitutive activation of TRPV3 due to continuous stimulation or the presence of Olmsted mutations causes noticeable skin inflammation due to the increased secretion of pro-inflammatory cytokines from the keratinocytes. Besides, in atopic dermatitis (AD), cytokine release from keratinocytes contributes to the inflammatory environment, which drives many characteristic AD symptoms. Therefore, we determined the effect of TRPV3 activation on cytokine release instead of TRPV3 expression and evaluated whether alpha-mangostin suppressed TRPV3-mediated cytokine secretion in normal human keratinocytes. The levels of secreted cytokines (interleukin (IL)-6, IL-8, and tumor necrosis factor-alpha (TNF-α)) were measured using enzyme-linked Immunosorbent assay (ELISA) kits due to their high sensitivity and quantitation ability. The cells were induced with 300 µM carvacrol, with or without 1 µM alpha-mangostin, and 10 µM 74a.
(§2) Figure 5 Alpha-mangostin (α-MG) inhibited carvacrol-induced cytokine release in NHEK cells and rescued carvacrol-induced cell death. (A) Alpha-mangostin inhibited the carvacrol-induced release of IL-8 and IL-6 in NHEK. Cells were induced by 300 µM carvacrol with or without either 1 µM alpha-mangostin or 10 µM 74a for 24 h before the ELISA assay. (B) Alpha-mangostin reduced cell death caused by carvacrol in human keratinocytes. […]

The test system of series [3] is TRPV1. Particulars: read-out: IC50 (µM), channel inhibited TRPV1; cited from earlier work.
Series [4] concerns HEK 293T cells expressing the WT TRPV3. Put plainly: in vitro. The class given is cell-based, human. Particulars: 24 h.
The test system of series [5] is IL-6. As to the kind of experiment: ELISA, carvacrol-induced IL-6 release in NHEK. It counts as cell-based, human. The conditions noted are these: 1 µM with 300 µM carvacrol, 24 h.
Excerpt: as §1, §2
(In general: ELISA stands for enzyme-linked immunosorbent assay.)

On to `COc1c(O)cc2oc3cc(O)c(CC=C(C)C)c(O)c3c(=O)c2c1CC=C(C)C` [Alpha-mangostin], for which the activity at 0.3 µM in series [1] (0.3 µM) was 75.1%. Further, the activity at 3 µM in series [1] (3 µM) came to 27%. Also, the “Effect on IL-8 levels” value in series [2] is on record as “drastically attenuated”. In addition, the IC50 in series [3] was 0.43 ± 0.27 µM. For the same compound, in series [4] (1 µM alone), the “Increase of viability of cells expressing the WT channel” value is listed as “not statistically significant”. Also, the “Cell viability (normalized O.D., compared with mock cells)” value in series [4] (human, 1 µM) is listed as 82.07% ± 1.34. For the same compound, in series [5], the “Effect on IL-6 levels” value is “slightly decreased”.

By IC50 is commonly meant the concentration at which inhibition is half-maximal.
